Results as given in patent US20240376099A1, “COMPOUNDS AND COMPOSITIONS AS INHIBITORS OF ENDOSOMAL TOLL-LIKE RECEPTORS” (Novartis AG, priority 2016, published 2024).

Columns and labels:
TLR7 = biological target: T1, TLR7 (Homo sapiens, UniProt Q9NYK1); test: huPBMC TLR7 Antagonist IFNα Assay; format: cell-based; conditions: human PBMCs stimulated with ssRNA40 10 μg/mL (DOTAP), 14-16 hrs; IFNα2b AlphaLISA read-out
T1 construct: Fresh blood was collected from normal human donors; endogenous in cells; host or cells: human PBMCs from fresh donor blood
T1 sequence (Q9NYK1 27-1049): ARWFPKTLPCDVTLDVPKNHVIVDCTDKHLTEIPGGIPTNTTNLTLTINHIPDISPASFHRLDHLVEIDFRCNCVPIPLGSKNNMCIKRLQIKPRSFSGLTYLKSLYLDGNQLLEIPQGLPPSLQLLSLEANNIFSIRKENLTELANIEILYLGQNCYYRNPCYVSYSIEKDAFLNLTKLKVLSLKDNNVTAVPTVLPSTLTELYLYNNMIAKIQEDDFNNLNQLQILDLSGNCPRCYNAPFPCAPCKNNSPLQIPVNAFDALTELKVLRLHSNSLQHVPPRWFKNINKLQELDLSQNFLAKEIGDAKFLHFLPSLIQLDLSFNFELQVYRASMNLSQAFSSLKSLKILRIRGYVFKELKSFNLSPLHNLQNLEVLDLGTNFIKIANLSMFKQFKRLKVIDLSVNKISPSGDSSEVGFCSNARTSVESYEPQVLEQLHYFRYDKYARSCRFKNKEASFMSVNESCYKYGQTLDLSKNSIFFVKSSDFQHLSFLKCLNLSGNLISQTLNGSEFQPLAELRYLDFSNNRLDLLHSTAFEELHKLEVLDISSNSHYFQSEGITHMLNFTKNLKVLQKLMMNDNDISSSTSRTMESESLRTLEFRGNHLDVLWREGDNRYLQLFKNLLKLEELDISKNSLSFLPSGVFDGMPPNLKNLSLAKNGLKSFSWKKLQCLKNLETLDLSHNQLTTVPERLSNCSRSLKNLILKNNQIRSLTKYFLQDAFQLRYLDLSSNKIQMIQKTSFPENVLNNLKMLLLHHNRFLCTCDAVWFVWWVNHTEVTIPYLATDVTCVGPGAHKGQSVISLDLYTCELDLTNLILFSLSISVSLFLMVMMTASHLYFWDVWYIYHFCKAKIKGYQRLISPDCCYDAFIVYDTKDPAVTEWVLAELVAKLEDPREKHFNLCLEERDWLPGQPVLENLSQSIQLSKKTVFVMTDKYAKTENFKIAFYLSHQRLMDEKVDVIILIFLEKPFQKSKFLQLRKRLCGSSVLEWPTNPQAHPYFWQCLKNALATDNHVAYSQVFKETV
Procedure: (§1) Compounds were generally serially diluted (1/3) in DMSO and plated on sterile 384 well tissue culture plates and stored until ready for use. Each ten-point dilution was typically plated in triplicate in parallel rows.
(§2) Fresh blood was collected from normal human donors underwritten informed consent in heparinized syringes on the morning of the assay. The blood was diluted in RPMI-1640 medium and the white blood cells were separated from red blood cells by centrifugation (800 g 15′ 0 acceleration, 0 brake) on a Ficoll cushion. Peripheral blood mononuclear cells (PBMCs) were separated from platelets by a series of low-speed centrifugations (1000RPM 10′) in PBS+5% HI—FBS and 1 mM EDTA. Purified PBMCs were re-suspended in assay medium (RPMI-1640 w Glutamax (Invitrogen) supplemented with 5% HI—FBS, 10 mM HEPES, 50 uM β-mercaptoethanol, and 100 mG/L penicillin/streptomycin cocktail). Viable PBMCs were counted on a hemacytometer and kept on ice until ready for plating.
(§3) A 4× concentration (4 ug/ml or 40 ug/ml for TLR8 or TLR7 assays, respectively) of the TLR7/8 agonist ssRNA40 (IDT) was complexed with 10% DOTAP (Roche) in assay medium for 30 min prior to addition to the PBMC suspension (5 million cells/ml). After addition, the final concentration of ssRNA40 in the TLR7/8 stimulated PBMC suspension was 1 μg/ml for TLR8 assay, and 10 μg/mL for the TLR7 assay. The final DOTAP concentration was 2.5%. Diluted PBMCs (5 million cells/ml) were treated with 4×TLR9 agonist ODN2216 (Invivogen). Final concentration of ODN2216 in TLR9 stimulated PBMC suspension was 0.3 μM.
(§4) Agonist stimulated PBMCs were plated on the compound treated 384 well plates at 150,000 cells/well. Un-stimulated PBMCs were plated as controls on each plate. Plating volume was 40 μL per well. DMSO concentration in each well was 0.25%.
(§5) A separate plate, without compounds, with titrations of ssRNA40 and ODN2216 was included in every assay to measure agonist response of each donor's PBMC prep. Assay plates were placed in a tissue culture incubator (37° C., 5% CO2) for 14-16 hrs. After this incubation, the plates were centrifuged and stored at −20° C. until they were assayed.
(§6) IL-6 TR-FRET Assay for TLR8 activity: • 1) Cisbio Human IL-6 kit, 20,000 tests (62TNFPEC), and GNF High-Base TC 384 well plates (cat #789163G) were used; • 2) the Anti-TIL-6 Cryptate conjugate and the Anti-IL-6 XL665 conjugate were diluted 1:20 in Reconstitution Buffer; • 3) a 1:1 mixture of 3 μl/well Anti-IL-6 Cryptate conjugate and 3 μl/well Anti-IL-6 XL665 conjugate was prepared; • 4) 6 μl/well HTRF dilution mastermix was added to 6 μl of transferred supernatant samples in proxiplates; • 5) The plates were incubated for 3 hrs at rt in the dark; and • 6) the levels of IL-6 production was measured using an Envision plate reader (665 nm (emmission)/590 nm (excitation)) with HTRF settings and ratiometric read-out: (XL665 emission/Eu Cryptate emission)×10,000. IFNα2b AlphaLISA Assay for TLR7 or TLR9 activity After thawing the assay plates, 6 μL of supernatant samples were transferred to a low-volume AlphaPlate 384SW (Perkin-Elmer). The concentration of IFNα in supernatants was measured using the IFNα2b AlphaLISA Assay (Perkin-Elmer: AL297F). 3 μL of IFNα acceptor beads/biotinylated antibody solution was added first, using laboratory automation. After an hour incubation, […] of streptavidin […] bead solution was added. The plates containing this mixture were incubated in the dark for an hour and read on an appropriate plate reader at reading parameters set by the manufacturer. (Envision, EnSpire: Perkin-Elmer).

TLR8 = biological target: T2, TLR8 (Homo sapiens, UniProt Q9NR97); test: huPBMC TLR8 Antagonist IL-6 TR-FRET Assay; format: cell-based; parameters: Fresh blood was collected from normal human donors; endogenous in cells; host or cells: human PBMCs from fresh donor blood; conditions: human PBMCs stimulated with ssRNA40 1 μg/ml (DOTAP), 14-16 hrs; IL-6 TR-FRET read-out
T2 sequence (Q9NR97 27-1041): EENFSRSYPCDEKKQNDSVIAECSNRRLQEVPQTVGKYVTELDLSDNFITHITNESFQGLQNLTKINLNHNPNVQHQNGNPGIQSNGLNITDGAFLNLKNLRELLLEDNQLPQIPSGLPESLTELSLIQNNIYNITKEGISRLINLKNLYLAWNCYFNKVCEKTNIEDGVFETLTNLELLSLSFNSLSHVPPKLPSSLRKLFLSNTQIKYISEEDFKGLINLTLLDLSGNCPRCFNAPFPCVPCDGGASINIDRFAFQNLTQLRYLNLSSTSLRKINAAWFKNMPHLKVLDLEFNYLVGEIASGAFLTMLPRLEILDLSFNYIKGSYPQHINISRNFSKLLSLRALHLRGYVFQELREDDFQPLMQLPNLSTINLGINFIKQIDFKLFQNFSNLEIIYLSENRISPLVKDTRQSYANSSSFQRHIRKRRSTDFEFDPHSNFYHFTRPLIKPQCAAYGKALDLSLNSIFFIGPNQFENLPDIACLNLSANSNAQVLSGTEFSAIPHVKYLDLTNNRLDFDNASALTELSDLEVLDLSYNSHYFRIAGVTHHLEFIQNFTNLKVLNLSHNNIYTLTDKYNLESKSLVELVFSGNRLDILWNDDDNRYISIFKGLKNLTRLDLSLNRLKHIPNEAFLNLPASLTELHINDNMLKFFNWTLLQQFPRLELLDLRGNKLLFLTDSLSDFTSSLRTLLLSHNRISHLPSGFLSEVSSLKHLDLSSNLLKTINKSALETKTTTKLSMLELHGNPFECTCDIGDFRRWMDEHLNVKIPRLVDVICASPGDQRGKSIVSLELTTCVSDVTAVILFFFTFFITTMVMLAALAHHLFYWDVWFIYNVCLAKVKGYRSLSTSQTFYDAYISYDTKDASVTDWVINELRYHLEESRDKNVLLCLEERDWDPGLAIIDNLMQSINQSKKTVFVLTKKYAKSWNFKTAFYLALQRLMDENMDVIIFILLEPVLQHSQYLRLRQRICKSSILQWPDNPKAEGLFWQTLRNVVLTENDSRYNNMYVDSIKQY
Procedure: as §1, §2, §3, §4, §5, §6

Row | Structure (SMILES) | IC50 (TLR7) [nM] | IC50 (TLR8) [nM]
1 | Cc1cc(N2CCc3c(c(C)nn3CC34CCC(N)(CC3)CC4)C2)c2ccn(C)c2n1 [Compound No. 5, 4-((5-(1,6-dimethyl-1H-pyrrolo[2,3-b]pyridin-4-yl)-3-methyl-4,5,6,7-tetrahydro-1H-pyrazolo[4,3-c]pyridin-1-yl)methyl)bicyclo[2.2.2]octan-1-amine] | 397 | 433
2 | Cc1nc(N2CCc3c(c(C)nn3CC34CCC(NC(=O)C5CNC5)(CC3)CC4)C2)c2c(n1)c(C)nn2C [compound 32, N-(4-((3-methyl-5-(1,3,5-trimethyl-1H-pyrazolo[4,3-d]pyrimidin-7-yl)-4,5,6,7-tetrahydro-1H-pyrazolo[4,3-c]pyridin-1-yl)methyl)bicyclo[2.2.2]octan-1-yl)azetidine-3-carboxamide] | 124 | 125
3 | Cc1cc(N2Cc3cnn(CC45CCC(N)(CC4)CC5)c3C(C)(C)C2)c2cnn(C)c2n1 [compound 60, 4-((5-(1,6-dimethyl-1H-pyrazolo[3,4-b]pyridin-4-yl)-7,7-dimethyl-4,5,6,7-tetrahydro-1H-pyrazolo[4,3-c]pyridin-1-yl)methyl)bicyclo[2.2.2]octan-1-amine] | 1030 | 277
4 | CC(=O)N(C)CC(=O)NC12CCC(Cn3nc(C)c4c3CCN(c3cc(C)nc5c3cnn5C)C4)(CC1)CC2 [compound 139, N-(4-((5-(1,6-dimethyl-1H-pyrazolo[3,4-b]pyridin-4-yl)-3-methyl-4,5,6,7-tetrahydro-1H-pyrazolo[4,3-c]pyridin-1-yl)methyl)bicyclo[2.2.2]octan-1-yl)-2-(N-methylacetamido)acetamide] | 67 | 3540

Molecules with a lower IC50 (TLR7), results first:

Row | IC50 (TLR7) [nM] | IC50 (TLR8) [nM] | Structure (SMILES)
5 | 13 |  | Cc1cc(N2CCc3c(c(C)nn3CC34CCC(NS(C)(=O)=O)(CC3)CC4)C2)c2cnn(C)c2n1 [Compound No. 48, N-(4-((5-(1,6-dimethyl-1H-pyrazolo[3,4-b]pyridin-4-yl)-3-methyl-4,5,6,7-tetrahydro-1H-pyrazolo[4,3-c]pyridin-1-yl)methyl)bicyclo[2.2.2]octan-1-yl)methanesulfonamide]
6 | 12 | 129 | Cc1cc(N2CCc3c(c(C)nn3CC34CCC(NCC(F)F)(CC3)CC4)C2)c2cnn(C)c2n1 [Compound No. 61, N-(2,2-difluoroethyl)-4-((5-(1,6-dimethyl-1H-pyrazolo[3,4-b]pyridin-4-yl)-3-methyl-4,5,6,7-tetrahydro-1H-pyrazolo[4,3-c]pyridin-1-yl)methyl)bicyclo[2.2.2]octan-1-amine]
7 | 34 | 568 | Cc1nn(CC23CCC(N)(CC2)CC3)c2c1CN(c1ccnc(-c3ccccc3)c1)CC2 [compound 63, 4-((3-methyl-5-(2-phenylpyridin-4-yl)-4,5,6,7-tetrahydro-1H-pyrazolo[4,3-c]pyridin-1-yl)methyl)bicyclo[2.2.2]octan-1-amine]
8 | 5 | 11 | Cc1cc(N2CCc3c(c(C)nn3CC34CCC(N5CCCCC5)(CC3)CC4)C2)c2cnn(C)c2n1 [compound 67, 5-(1,6-dimethyl-1H-pyrazolo[3,4-b]pyridin-4-yl)-3-methyl-1-((4-(piperidin-1-yl)bicyclo[2.2.2]octan-1-yl)methyl)-4,5,6,7-tetrahydro-1H-pyrazolo[4,3-c]pyridine]
9 | 4 | 20 | Cc1cc(N2CCc3c(c(C)nn3CC34CCC(N5C[C@H]6CC[C@@H](C5)O6)(CC3)CC4)C2)c2cnn(C)c2n1 [compound 120, (1R,5S)-3-(4-((5-(1,6-dimethyl-1H-pyrazolo[3,4-b]pyridin-4-yl)-3-methyl-4,5,6,7-tetrahydro-1H-pyrazolo[4,3-c]pyridin-1-yl)methyl)bicyclo[2.2.2]octan-1-yl)-8-oxa-3-azabicyclo[3.2.1]octane]
10 | 6 | 2790 | Cc1cc(N2CCc3c(c(C)nn3CC34CCC(NC(=O)CN(C)S(C)(=O)=O)(CC3)CC4)C2)c2cnn(C)c2n1 [compound 138, N-(4-((5-(1,6-dimethyl-1H-pyrazolo[3,4-b]pyridin-4-yl)-3-methyl-4,5,6,7-tetrahydro-1H-pyrazolo[4,3-c]pyridin-1-yl)methyl)bicyclo[2.2.2]octan-1-yl)-2-(N-methylmethylsulfonamido)acetamide]
